Data from patent publication US9328374B2, “Selective culture medium and method for detecting carbapenem-resistant bacteria in a test sample” (Institut National de la Sante et de la Recherche Medicale …, priority 2011, dated 2016).
Where “and” joins values, the source holds several entries; their conditions need not be identical. Equal values may be shown once.

Columns and labels:
Assay in all cases: MIC of imipenem, ertapenem and meropenem
P. mirabilis = type: cell-based
E. aerogenes = type: cell-based, Enterobacter aerogenes
S. typhimurium = type: cell-based
P. stuartii = type: cell-based, Providencia stuartii
P. rettgeri = type: cell-based, Providencia rettgeri
K. pneumoniae = type: cell-based, Klebsiella pneumoniae

## C[C@@H](O)[C@H]1C(=O)N2C(C(=O)O)=C(S[C@@H]3CN[C@H](C(=O)N(C)C)C3)[C@H](C)[C@H]12 [MEM, meropenem]
P. mirabilis; P. mirabilis 1031 (CTX-M-14 + TEM-1 + SHV-11)
  MIC: 0.032 µg/mL
P. mirabilis; P. mirabilis 1031, CTX-M-14 + TEM-1 + SHV-11, non-carbapenemase producer
  MIC: 0.032 µg/mL
P. mirabilis; P. mirabilis PMA (ACC-1)
  MIC: 0.12 µg/mL and 0.064 µg/mL
P. mirabilis; P. mirabilis PMA, ACC-1, non-carbapenemase producer
  MIC: 0.064 µg/mL
E. aerogenes; E. aerogenes 1009, TEM-24, non-carbapenemase producer
  MIC: 0.016 µg/mL
E. aerogenes; E. aerogenes 1085 (TEM-24)
  MIC: 0.023 µg/mL
E. aerogenes; E. aerogenes 1085, TEM-24, non-carbapenemase producer
  MIC: 0.023 µg/mL
E. aerogenes; strain E. aerogenes 1085, TEM-24, non-carbapenemase producer
  MIC: 0.023 µg/mL
S. typhimurium; S. typhimurium 1081 (CTX-M-1)
  MIC: 0.032 µg/mL
S. typhimurium; S. typhimurium 1081, CTX-M-1, non-carbapenemase producer
  MIC: 0.032 µg/mL
S. typhimurium; strain S. typhimurium 1081, CTX-M-1, non-carbapenemase producer
  MIC: 0.032 µg/mL
P. stuartii; P. stuartii NDM (NDM-1 + OXA-1 + CMY-6)
  MIC: 1.5 µg/mL
P. stuartii; P. stuartii PS1 (NDM-1 + CMY-6 + OXA-1)
  MIC: 1.5 µg/mL
P. stuartii; P. stuartii PS1, NDM-1 + CMY-6 + OXA-1
  MIC: 1.5 µg/mL
P. stuartii; strain P. stuartii PS1, NDM-1 + CMY-6 + OXA-1
  MIC: 1.5 µg/mL
P. rettgeri; P. rettgeri RAP (OXA-181 + OXA-1)
  MIC: 2 µg/mL
P. rettgeri; P. rettgeri RAP, OXA-181 + OXA-1
  MIC: 2 µg/mL
P. rettgeri; strain P. rettgeri RAP, OXA-181 + OXA-1
  MIC: 2 µg/mL
K. pneumoniae; K. pneumoniae 1 OMA (NDM-1 + CTX-M-15 + OXA-1 + OXA-9)
  MIC: >32 µg/mL
K. pneumoniae; K. pneumoniae 2 OLA (NDM-1 + OXA-1)
  MIC: 2 µg/mL
K. pneumoniae; K. pneumoniae 7 AFR (NDM-1 + OXA-1 + CTX-M-15 + CMY-6 + TEM-1)
  MIC: >32 µg/mL
K. pneumoniae; K. pneumoniae 7AFR, NDM-1 + TEM-1 + CTX-M-15 + CMY-6 + OXA-1
  MIC: >32 µg/mL
K. pneumoniae; K. pneumoniae 0227, SHV-1, non-carbapenemase producer
  MIC: 0.016 µg/mL
K. pneumoniae; K. pneumoniae 588, KPC-2 + TEM-1 + SHV-11 + OXA-9
  MIC: 16 µg/mL
K. pneumoniae; K. pneumoniae 1022, SHV-2a + SHV-28, non-carbapenemase producer
  MIC: 0.023 µg/mL
K. pneumoniae; K. pneumoniae 1025 (CTX-M-14 + TEM-1 + SHV-11)
  MIC: 0.016 µg/mL
K. pneumoniae; K. pneumoniae 1025, CTX-M-14 + TEM-1 + SHV-11, non-carbapenemase producer
  MIC: 0.016 µg/mL
K. pneumoniae; K. pneumoniae 2303, KPC-2 + SHV-11
  MIC: >32 µg/mL
K. pneumoniae; K. pneumoniae 6642 GEN (NDM-1 + CTX-M-15 + OXA-1 + OXA-10)
  MIC: 3 µg/mL
K. pneumoniae; K. pneumoniae 6642 GEN, NDM-1 + CTX-M-15 + OXA-1 + OXA-10
  MIC: 3 µg/mL
K. pneumoniae; K. pneumoniae 6759 GEN (NDM-1 + CTX-M-15 + OXA-1 + OXA-9 + OXA-10 + CMY16)
  MIC: >32 µg/mL
K. pneumoniae; K. pneumoniae 6759 GEN, NDM-1 + CTX-M-15 + CMY-16 + OXA-1 + OXA-9 + OXA-10
  MIC: >32 µg/mL
K. pneumoniae; K. pneumoniae 7725 (SHV-1)
  MIC: 0.032 µg/mL
K. pneumoniae; K. pneumoniae 7725, SHV-1, non-carbapenemase producer
  MIC: 0.032 µg/mL
K. pneumoniae; K. pneumoniae 10112, CTX-M-15 + TEM-1 + SHV-11, non-carbapenemase producer
  MIC: 0.023 µg/mL
K. pneumoniae; K. pneumoniae 0404020, VIM-1+ SHV-5
  MIC: >32 µg/mL
K. pneumoniae; K. pneumoniae 0404024, VIM-1
  MIC: >32 µg/mL
K. pneumoniae; K. pneumoniae 0511135, VIM-1+ SHV-12
  MIC: >32 µg/mL
K. pneumoniae; K. pneumoniae 648236 (SHV-2a)
  MIC: 0.38 µg/mL
K. pneumoniae; K. pneumoniae 648236, SHV-2a, non-carbapenemase producer, porin deficiency
  MIC: 0.38 µg/mL
K. pneumoniae; K. pneumoniae 0709121, IMP-1
  MIC: 1 µg/mL
K. pneumoniae; K. pneumoniae 0709124, IMP-1 + TEM-15
  MIC: 2 µg/mL
K. pneumoniae; K. pneumoniae 0709125, IMP-1 + TEM-1 + SHV-12
  MIC: 2 µg/mL
K. pneumoniae; K. pneumoniae 0709127, IMP-1 + TEM-1
  MIC: 1 µg/mL
K. pneumoniae; K. pneumoniae A28006, KPC-2 + TEM-1 + CTX-M-2 + SHV-11
  MIC: 32 µg/mL
K. pneumoniae; K. pneumoniae A33504, KPC-2 + TEM-1 + SHV-11 + CTX-M-2 + OXA-9
  MIC: >32 µg/mL
K. pneumoniae; K. pneumoniae AEL, OXA-48 + CTX-M-15 + SHV-28 + OXA-1
  MIC: 0.38 µg/mL
K. pneumoniae; K. pneumoniae ALE (CTX-M-15 + SHV-1)
  MIC: 4 µg/mL
K. pneumoniae; K. pneumoniae ALE, CTX-M-15 + SHV-1, non-carbapenemase producer, porin deficiency
  MIC: 4 µg/mL
K. pneumoniae; K. pneumoniae AMS (OXA-48 + TEM-1 + CTX-M-15 + OXA-1)
  MIC: 0.38 µg/mL
K. pneumoniae; K. pneumoniae AMS, OXA-48 + TEM-1 + CTX-M-15 + OXA-1
  MIC: 0.38 µg/mL
K. pneumoniae; K. pneumoniae BAJ (OXA-48 + TEM-1 + CTX-M-15 + SHV-28)
  MIC: 0.38 µg/mL
K. pneumoniae; K. pneumoniae BAJ, OXA-48 + TEM-1 + CTX-M-15 + SHV-28
  MIC: 0.38 µg/mL
K. pneumoniae; K. pneumoniae BED (CTX-M-15 + TEM-1 + SHV-1; Table 8: SHV-11)
  MIC: 4 µg/mL
K. pneumoniae; K. pneumoniae BED, CTX-M-15 + TEM-1 + SHV-11, non-carbapenemase producer, porin deficiency
  MIC: 4 µg/mL
K. pneumoniae; K. pneumoniae BEL (OXA-48)
  MIC: 1 µg/mL
K. pneumoniae; K. pneumoniae BEL, OXA-48
  MIC: 1 µg/mL
K. pneumoniae; K. pneumoniae BEN (OXA-48 + TEM-1 + CTX-M-15 + SHV-28)
  MIC: 0.25 µg/mL
K. pneumoniae; K. pneumoniae BEN, OXA-48 + TEM-1 + CTX-M-15 + SHV-28
  MIC: 0.25 µg/mL
K. pneumoniae; K. pneumoniae BER (TEM-1 + SHV-28)
  MIC: 1 µg/mL
K. pneumoniae; K. pneumoniae BER, SHV-28 + TEM-1, non-carbapenemase producer, porin deficiency
  MIC: 1 µg/mL
K. pneumoniae; K. pneumoniae BEY (OXA-48 + CTX-M-15 + TEM-1)
  MIC: 0.38 µg/mL
K. pneumoniae; K. pneumoniae BEY, OXA-48 + TEM-1 + CTX-M-15
  MIC: 0.38 µg/mL
K. pneumoniae; K. pneumoniae BIC (OXA-48)
  MIC: 0.5 µg/mL
K. pneumoniae; K. pneumoniae BIC, OXA-48
  MIC: 0.5 µg/mL
K. pneumoniae; K. pneumoniae BOU, OXA-48
  MIC: 0.25 µg/mL
K. pneumoniae; K. pneumoniae CHA (OXA-48 + TEM-1)
  MIC: 0.5 µg/mL
K. pneumoniae; K. pneumoniae CHA, OXA-48 + TEM-1
  MIC: 0.5 µg/mL
K. pneumoniae; K. pneumoniae COL (KPC-2 + TEM-1 + SHV-1 + CTX-M-15)
  MIC: 32 µg/mL
K. pneumoniae; K. pneumoniae COO (CTX-M-15 + SHV28)
  MIC: 4 µg/mL
K. pneumoniae; K. pneumoniae COO, CTX-M-15 + SHV-28, non-carbapenemase producer, porin deficiency
  MIC: 4 µg/mL
K. pneumoniae; K. pneumoniae DAL (OXA-48 + CTX-M-15 + TEM-1)
  MIC: 0.38 µg/mL
K. pneumoniae; K. pneumoniae DAL, OXA-48 + TEM-1 + CTX-M-15
  MIC: 0.38 µg/mL
K. pneumoniae; K. pneumoniae DIA, OXA-48 + TEM-1b + CTX-M-15 + SHV-11 + OXA-1
  MIC: >32 µg/mL
K. pneumoniae; K. pneumoniae DUW, OXA-48 + TEM-1 + CTX-M-15 + SHV-28
  MIC: 32 µg/mL
K. pneumoniae; K. pneumoniae EGY (OXA-48 + CTX-M-15)
  MIC: 2 µg/mL
K. pneumoniae; K. pneumoniae EGY, OXA-48 + CTX-M-15
  MIC: 2 µg/mL
K. pneumoniae; K. pneumoniae ELK (OXA-48 + TEM-1 + CTX-M-15 + SHV-11)
  MIC: 0.38 µg/mL
K. pneumoniae; K. pneumoniae ELK, OXA-48 + TEM-1 + CTX-M-15 + SHV-11
  MIC: 0.38 µg/mL
K. pneumoniae; K. pneumoniae ENN, VIM-1+ SHV-5
  MIC: 0.38 µg/mL
K. pneumoniae; K. pneumoniae FOS (CTX-M-15 + TEM-1 + SHV-11)
  MIC: >32 µg/mL
K. pneumoniae; K. pneumoniae FOS, CTX-M-15 + TEM-1 + SHV-11, non-carbapenemase producer, porin deficiency
  MIC: >32 µg/mL
K. pneumoniae; K. pneumoniae GES, KPC-2 + TEM-1 + SHV-11
  MIC: 1.5 µg/mL
